From US6949542B2, “Dihydro-benzo[b][1,4]diazepin-2-one derivatives” (Hoffman-La Roche Inc., priority 2002, dated 2005) come the findings set out here.

pKi: −log10 of the molar value.

T1 sequence (P31421 19-872): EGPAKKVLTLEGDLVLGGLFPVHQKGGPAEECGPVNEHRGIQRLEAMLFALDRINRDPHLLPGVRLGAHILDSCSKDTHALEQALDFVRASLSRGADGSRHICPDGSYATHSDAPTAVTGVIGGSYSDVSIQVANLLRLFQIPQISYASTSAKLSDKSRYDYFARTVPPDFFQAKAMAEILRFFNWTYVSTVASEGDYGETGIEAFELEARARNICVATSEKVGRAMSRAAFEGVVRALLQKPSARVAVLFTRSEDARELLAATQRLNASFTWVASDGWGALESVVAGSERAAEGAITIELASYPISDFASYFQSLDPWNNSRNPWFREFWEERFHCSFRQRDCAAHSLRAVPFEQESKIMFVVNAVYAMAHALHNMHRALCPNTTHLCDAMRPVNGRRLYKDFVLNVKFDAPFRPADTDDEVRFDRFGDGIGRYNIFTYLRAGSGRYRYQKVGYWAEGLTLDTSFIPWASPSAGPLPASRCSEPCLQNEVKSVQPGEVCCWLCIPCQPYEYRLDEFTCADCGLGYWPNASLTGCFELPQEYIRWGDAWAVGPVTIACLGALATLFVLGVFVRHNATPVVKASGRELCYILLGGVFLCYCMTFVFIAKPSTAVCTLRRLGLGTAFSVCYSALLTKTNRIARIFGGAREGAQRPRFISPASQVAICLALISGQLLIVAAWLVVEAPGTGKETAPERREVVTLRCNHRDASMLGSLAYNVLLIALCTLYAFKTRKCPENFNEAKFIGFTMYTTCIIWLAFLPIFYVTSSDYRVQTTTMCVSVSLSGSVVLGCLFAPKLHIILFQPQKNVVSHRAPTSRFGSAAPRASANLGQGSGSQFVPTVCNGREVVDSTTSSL

One series addresses T1, rat mGlu2 receptor (Rattus norvegicus, UniProt P31421).
T1 construct: expressed in transfected cells; vector pcD1mGR2
Kind of series: [3H]-LY354740 binding on mGlu2 transfected CHO cell membranes. Conditions: inhibition of 10 nM [3H]-LY354740 binding, mGlu2 transfected CHO cell membranes, room temperature, 1 hour; read-out: Ki mGlu2.
Protocol: [^3H]-LY354740 Binding on mGlu2 Transfected CHO Cell Membranes
Transfection and Cell Culture
The cells were maintained in Dulbecco's Modified Eagle medium with reduced L-glutamine (2 mM final concentration) and 10% dialysed foetal calf serum from Gibco BRL (Basel, Switzerland).
Cells, cultured as above, were harvested and washed three times with cold PBS and frozen at −80° C. The pellet was resuspended in cold 20 mM HEPES-NaOH buffer containing 10 mM EDTA (pH 7.4), and homogenised with a polytron (Kinematica, AG, Littau, Switzerland) for 10 s at 10 000 rpm. After centrifugation for 30 min. at 4° C., the pellet was washed once with the same buffer, and once with cold 20 mM HEPES-NaOH buffer containing 0.1 mM EDTA, (pH 7.4). Protein content was measured using the Pierce method (Socochim, Lausanne, Switzerland) using bovine serum albumin as standard.
After thawing, the membranes were resuspended in cold 50 mM Tris-HCl buffer containing 2 mM MgCl2 and 2 mM CaCl2, (pH 7) (binding buffer). The final concentration of the membranes in the assays was 25 μg protein/ml. Inhibition experiments were performed with membranes incubated with 10 nM [^3H]-LY354740 at room temperature, for 1 hour, in presence of various concentrations of the compound to be tested. Following the incubations, membranes were filtered onto Whatmann GF/C glass fiber filters and washed 5 times with cold binding buffer. Non specific binding was measured in the presence of 10 μM DCG IV. After transfer of the filters into plastic vials containing 10 ml of Ultima-gold scintillation fluid (Packard, Zürich, Switzerland), the radioactivity was measured by liquid scintillation in a Tri-Carb 2500 TR counter (Packard, Zürich, Switzerland).
The inhibition curves were fitted with a four parameter logistic equation giving IC50 values, and Hill coefficients.
Usually pKi stands for the Ki on a negative log10 scale, so that one unit is a factor of ten. As to `O=C1CC(c2cccc(-c3cccnc3)c2)=Nc2cc(Cl)c(Cl)cc2N1` [Example 1, 7,8-Dichloro-4-(3-pyridin-3-yl-phenyl)-1,3-dihydro-benzo[b][1,4]diazepin-2-one], the negative-log Ki (pKi) was 8.87.

As for `CN(C)c1cc2c(cc1C(F)(F)F)NC(=O)CC(c1cccc(-c3cccnc3)c1)=N2` [Example 3, 7-Dimethylamino-4-(3-pyridin-3-yl-phenyl)-8-trifluoromethyl-1,3-dihydro-benzo[b][1,4]diazepin-2-one], the pKi is 8.64.

Turning to `CN(C)c1cc2c(cc1C(F)(F)F)NC(=O)CC(c1cccc(-c3ccncc3)c1)=N2` [Example 4, 7-Dimethylamino-4-(3-pyridin-4-yl-phenyl)-8-trifluoromethyl-1,3-dihydro-benzo[b][1,4]diazepin-2-one], the pKi was 8.22.

As to `O=C1CC(c2cccc(-c3ccccn3)c2)=Nc2ccc(-n3cccc3)cc2N1` [Example 54, 4-(3-Pyridin-2-yl-phenyl)-8-pyrrol-1-yl-1,3-dihydro-benzo[b][1,4]diazepin-2-one], the pKi is 7.49.

In the case of `O=C1CC(c2cccc(-c3cccnc3)c2)=Nc2cc(OCC(F)(F)F)ccc2N1` [Example 57, 4-(3-Pyridin-3-yl-phenyl)-7-(2,2,2-trifluoro-ethoxy)-1,3-dihydro-benzo[b][1,4]diazepin-2-one], the negative-log Ki (pKi) was 8.21.

For `Cc1cc2c(cc1Cl)NC(=O)CC(c1cccc(-c3ccncc3)c1)=N2` [Example 67, 8-Chloro-7-methyl-4-(3-pyridin-4-yl-phenyl)-1,3-dihydro-benzo[b][1,4]diazepin-2-one], the pKi was 8.81.

On to `Cc1cc(-c2cccc(C3=Nc4ccc(-c5ccccc5F)cc4NC(=O)C3)c2)ccn1` [Example 72, 8-(2-Fluoro-phenyl)-4-[3-(2-methyl-pyridin-4-yl)-phenyl]-1,3-dihydro-benzo[b][1,4]diazepin-2-one], for which the pKi was 8.74.

Regarding `Cc1cc(-c2cccc(C3=Nc4cc(C)c(Cl)cc4NC(=O)C3)c2)ccn1` [Example 73, 8-Chloro-7-methyl-4-[3-(2-methyl-pyridin-4-yl)-phenyl]-1,3-dihydro-benzo[b][1,4]diazepin-2-one], the pKi is 8.57.

On to `Cc1cc2c(cc1C(F)(F)F)NC(=O)CC(c1ccnc(-c3cccnc3)c1)=N2` [Example 290, 4-[2,3′]Bipyridinyl-4-yl-7-methyl-8-trifluoromethyl-1,3-dihydro-benzo[b][1,4]diazepin-2-one], for which the negative logarithm of the Ki (pKi) was 8.30.

System in another series: not given
Test: not given
Conditions: not given
As a reminder, the melting point is the temperature, or range, at which the solid turns liquid. Compound `CC(C)CN(C)Cc1cc(-c2cccc(C3=Nc4cc(N(C)CC(C)C)c(C(F)(F)F)cc4NC(=O)C3)c2)ccn1` [Example 395, 7-(Isobutyl-methyl-amino)-4-(3-{2-[(isobutyl-methyl-amino)-methyl]-pyridin-4-yl}-phenyl)-8-trifluoromethyl-1,3-dihydro-benzo[b][1,4]diazepin-2-one] gave a melting point of 190 °C.

`Cc1cc2c(cc1Cl)NC(=O)CC(c1cccc(-c3ccnc(CN(C)CC(C)C)c3)c1)=N2` [Example 396, 8-Chloro-4-(3-{2-[(isobutyl-methyl-amino)-methyl]-pyridin-4-yl}-phenyl)-7-methyl-1,3-dihydro-benzo[b][1,4]diazepin-2-one] showed a melting point of 151 °C.

With `CC(C)CN(C)Cc1cc(-c2cccc(C3=Nc4cc(OCC(F)(F)F)c(C(F)(F)F)cc4NC(=O)C3)c2)ccn1` [Example 397, 4-(3-{2-[(Isobutyl-methyl-amino)-methyl]-pyridin-4-yl}-phenyl)-7-(2,2,2-trifluoro-ethoxy)-8-trifluoromethyl-1,3-dihydro-benzo[b][1,4]diazepin-2-one], the melting point turned out to be 166 °C.

In turn, `COCc1cc(-c2cccc(C3=Nc4cc(N(C)CC(C)C)c(C(F)(F)F)cc4NC(=O)C3)c2)ccn1` [Example 398, 7-(Isobutyl-methyl-amino)-4-[3-(2-methoxymethyl-pyridin-4-yl)-phenyl]-8-trifluoromethyl-1,3-dihydro-benzo[b][1,4]diazepin-2-one] had a melting point of 141 °C.

In turn, `COCc1cc(-c2cccc(C3=Nc4cc(C)c(Cl)cc4NC(=O)C3)c2)ccn1` [Example 399, 8-Chloro-4-[3-(2-methoxymethyl-pyridin-4-yl)-phenyl]-7-methyl-1,3-dihydro-benzo[b][1,4]diazepin-2-one] gave a melting point of 216 °C.

Take `COCc1cc(-c2cccc(C3=Nc4cc(OCC(F)(F)F)c(C(F)(F)F)cc4NC(=O)C3)c2)ccn1` [Example 400, 4-[3-(2-Methoxymethyl-pyridin-4-yl)-phenyl]-7-(2,2,2-trifluoro-ethoxy)-8-trifluoromethyl-1,3-dihydro-benzo[b][1,4]diazepin-2-one]: the melting point was determined as 225 °C.

In turn, `Cc1cc(-c2cccc(C3=Nc4cc(C)c(Cl)cc4NC(=O)C3)c2)cc(CO)n1` [Example 401, 8-Chloro-4-[3-(2-hydroxymethyl-6-methyl-pyridin-4-yl)-phenyl]-7-methyl-1,3-dihydro-benzo[b][1,4]diazepin-2-one] gave a melting point of 202 °C.

`Cc1cc(-c2cccc(C3=Nc4cc(C)c(C(F)(F)F)cc4NC(=O)C3)c2)cc(CO)n1` [Example 402, 4-[3-(2-Hydroxymethyl-6-methyl-pyridin-4-yl)-phenyl]-7-methyl-8-trifluoromethyl-1,3-dihydro-benzo[b][1,4]diazepin-2-one] came in with a melting point of 200 °C.

Take `Cc1cc(-c2cccc(C3=Nc4cc(Cl)c(C(F)(F)F)cc4NC(=O)C3)c2)cc(CO)n1` [Example 403, 7-Chloro-4-[3-(2-hydroxymethyl-6-methyl-pyridin-4-yl)-phenyl]-8-trifluoromethyl-1,3-dihydro-benzo[b][1,4]diazepin-2-one]: the melting point was 163 °C.

Regarding `Cc1cc(-c2cccc(C3=Nc4cc(Cl)c(Cl)cc4NC(=O)C3)c2)cc(CO)n1` [Example 404, 7,8-Dichloro-4-[3-(2-hydroxymethyl-6-methyl-pyridin-4-yl)-phenyl]-1,3-dihydro-benzo[b][1,4]diazepin-2-one], the melting point stood at 234 °C.

As to `Cc1cc(-c2cccc(C3=Nc4cc(OCC(F)(F)F)c(C(F)(F)F)cc4NC(=O)C3)c2)cc(CO)n1` [Example 405, 4-[3-(2-Hydroxymethyl-6-methyl-pyridin-4-yl)-phenyl]-7-(2,2,2-trifluoro-ethoxy)-8-trifluoromethyl-1,3-dihydro-benzo[b][1,4]diazepin-2-one], the melting point was 227 °C.

For the compound `CCOc1cc2c(cc1C(F)(F)F)NC(=O)CC(c1cccc(-c3cc(C)nc(CO)c3)c1)=N2` [Example 406, 7-Ethoxy-4-[3-(2-hydroxymethyl-6-methyl-pyridin-4-yl)-phenyl]-8-trifluoromethyl-1,3-dihydro-benzo[b][1,4]diazepin-2-one], the melting point is 225 °C.

Turning to `Cc1cc(-c2cccc(C3=Nc4ccc(C(F)(F)F)cc4NC(=O)C3)c2)cc(CO)n1` [Example 407, 4-[3-(2-Hydroxymethyl-6-methyl-pyridin-4-yl)-phenyl]-8-trifluoromethyl-1,3-dihydro-benzo[b][1,4]diazepin-2-one], the melting point stood at 228 °C.

As to `Cc1cc(-c2cccc(C3=Nc4cc(N(C)CC(C)C)c(C(F)(F)F)cc4NC(=O)C3)c2)cc(C)n1` [Example 408, 4-[3-(2,6-Dimethyl-pyridin-4-yl)-phenyl]-7-(isobutyl-methyl-amino)-8-trifluoromethyl-1,3-dihydro-benzo[b][1,4]diazepin-2-one], the melting point turned out to be 215 °C.

For the compound `Cc1cc(-c2cccc(C3=Nc4cc(N(C)C)c(C(F)(F)F)cc4NC(=O)C3)c2)cc(C)n1` [Example 409, 7-Dimethylamino-4-[3-(2,6-dimethyl-pyridin-4-yl)-phenyl]-8-trifluoromethyl-1,3-dihydro-benzo[b][1,4]diazepin-2-one], the melting point amounted to 256 °C.

In the case of `Cc1cc(-c2cccc(C3=Nc4cc(N5CCCC5)c(C(F)(F)F)cc4NC(=O)C3)c2)cc(C)n1` [Example 411, 4-[3-(2,6-Dimethyl-pyridin-4-yl)-phenyl]-7-pyrrolidin-1-yl-8-trifluoromethyl-1,3-dihydro-benzo[b][1,4]diazepin-2-one], the melting point turned out to be 233 °C.

`Cc1cc(-c2cccc(C3=Nc4cc(N(C)C(C)C)c(C(F)(F)F)cc4NC(=O)C3)c2)cc(C)n1` [Example 412, 4-[3-(2,6-Dimethyl-pyridin-4-yl)-phenyl]-7-(isopropyl-methyl-amino)-8-trifluoromethyl-1,3-dihydro-benzo[b][1,4]diazepin-2-one] showed a melting point of 232 °C.

`CCCN(C)c1cc2c(cc1C(F)(F)F)NC(=O)CC(c1cccc(-c3cc(C)nc(C)c3)c1)=N2` [Example 413, 4-[3-(2,6-Dimethyl-pyridin-4-yl)-phenyl]-7-(methyl-propyl-amino)-8-trifluoromethyl-1,3-dihydro-benzo[b][1,4]diazepin-2-one] returned a melting point of 233 °C.

`Cc1cc(-c2cccc(C3=Nc4cc(C(F)(F)F)c(C(F)(F)F)cc4NC(=O)C3)c2)ccn1` [Example 414, 4-[3-(2-Methyl-pyridin-4-yl)-phenyl]-7,8-bis-trifluoromethyl-1,3-dihydro-benzo[b][1,4]diazepin-2-one] returned a melting point of 209 °C.

The compound `Cc1cc(-c2cccc(C3=Nc4cc(C(F)(F)F)c(C(F)(F)F)cc4NC(=O)C3)c2)cc(C)n1` [Example 415, 4-[3-(2,6-Dimethyl-pyridin-4-yl)-phenyl]-7,8-bis-trifluoromethyl-1,3-dihydro-benzo[b][1,4]diazepin-2-one] yielded a melting point of 220 °C.

Turning to `O=C1CC(c2cccc(-c3cccnc3)c2)=Nc2cc(C(F)(F)F)c(C(F)(F)F)cc2N1` [Example 416, 4-(3-Pyridin-3-yl-phenyl)-7,8-bis-trifluoromethyl-1,3-dihydro-benzo[b][1,4]diazepin-2-one], the melting point amounted to 210 °C.

Take `O=C1CC(c2cccc(-c3ccnc(CO)c3)c2)=Nc2cc(C(F)(F)F)c(C(F)(F)F)cc2N1` [Example 417, 4-[3-(2-Hydroxymethyl-pyridin-4-yl)-phenyl]-7,8-bis-trifluoromethyl-1,3-dihydro-benzo[b][1,4]diazepin-2-one]: the melting point came to 209 °C.
